Measured values reported in patent publication US4469692A, “Spiro derivatives of the pyrazolo [1,5-d] [1,2,4] triazine ring system and a process for the preparation thereof” (Alkaloida Vegyeszeti Gyar, priority 1981, dated 1984).
“Also recorded” adds a separate entry of the source.

Experiments:
mice [1] = test: Hypnotic effect in mice (method of Janssen et al.); type: in vivo; conditions: for minimal effective dose / ED50: Mus musculus, iv; for minimal effective dose: 0.05 h, read-out: Hmin (minimal hypnotic dose inducing sleep in all animals for a period exceeding 3 minutes); for minimal effective dose / Mean duration of sleep: i.v.; for ED50: read-out: HD50 (dose inducing sleep in 50 percent of the animals)
Procedure: (§1) The hypnotic activity is measured by the method of Janssen et al. (J. Med. Chem. 8, 220/1965/). Ketalar/2-(2-chlorophenyl)-2-methyl-amino-cyclohexanone/ and Hexobarbital (5-methyl-5-hexenyl-barbituric acid) were applied as reference compounds.

rats = test: Hypnotic effect in rats (method of Janssen et al.); type: in vivo; conditions: for ED50: Rattus norvegicus, iv, read-out: HD50 (the source's name); for Mean duration of sleep: i.v., in the case of dose HD50
Procedure: as §1

[2] = Acute toxicity (LD50) in mice; conditions: mouse, in vivo, iv
[3] = Acute toxicity (LD50) in rats; conditions: rat, in vivo, iv
rabbits = test: Hypnotic effect in rabbits (method of Janssen et al.); type: in vivo; conditions: for minimal effective dose: Oryctolagus cuniculus, iv, read-out: Hmin; for Mean duration of sleep: i.v., in the case of dose Hmin
Procedure: as §1

[4] = Postnarcotic period following awakening and adverse effects; type: in vivo; conditions: postnarcotic period following awakening
mice [5] = test: Acute toxicity (LD50) in mice; conditions: mice, Tables 1 and 2
[6] = Acute toxicity (LD50, lethality) in rabbits; conditions: rabbit, in vivo; for LD50: iv, LD50, rabbits

SMILES: CN1C(=O)NC(=O)C(C)(C2=CCCCC2)C1=O (stereo not drawn) [Hexobarbital, 5-methyl-5-hexenyl-barbituric acid]
- minimal effective dose (mice [1]): 45 mg/kg
- ED50 (mice [1]): 25 mg/kg
- Mean duration of sleep (mice [1]; at a dose of 40 mg/kg): 2.6 min
- Mean duration of sleep (mice [1]; in the case of dose HD50): 4.1 min
- Mean duration of sleep (mice [1]; in the case of dose Hmin): 7.2 min
- ED50 (rats): 17.5 mg/kg
- Mean duration of sleep (rats): 4.45 min
- LD50 [2]: 118 mg/kg
- LD50 [3]: 125 mg/kg

SMILES: Cc1cc2n(n1)C1(CCCCC1)N(C)N(C)C2=O [Example 5, Spiro[cyclohexane-1,7'-/6,7-dihydro-2,5,6-trimethylpyrazolo[1,5-d][1,2,4]triazin-4(5H)-one/]]
- minimal effective dose (mice [1]): 25 mg/kg
- ED50 (mice [1]): 17.5 mg/kg
- hypnotic effect compared with Hexobarbital and Ketalar (mice [1]; Tables 1 and 2, listed as compound of the invention): superior to that of Hexobarbital; also recorded: in the same range as that of Ketalar
- Mean duration of sleep (mice [1]; in the case of dose HD50): 2.8 min
- Mean duration of sleep (mice [1]; in the case of dose Hmin): 6.75 min
- ED50 (rats): 16 mg/kg
- therapeutic index compared with reference substances (rats; Table 3): more advantageous in both instances
- Mean duration of sleep (rats): 1.5 min
- minimal effective dose (rabbits): 25 mg/kg
- Mean duration of sleep (rabbits): 6 min
- adverse effects of the postnarcotic period [4]: devoid of any adverse effects
- LD50 [2]: 192 mg/kg
- toxicity compared with reference substances (mice [5]): substantially lower than that of any of the above reference substances
- LD50 [3]: 275 mg/kg
- LD50 [6]: ~325 mg/kg

SMILES: CNC1(c2ccccc2Cl)CCCCC1=O (stereo not drawn) [Ketalar, 2-(2-chlorophenyl)-2-methyl-amino-cyclohexanone]
- minimal effective dose (mice [1]): 25 mg/kg
- ED50 (mice [1]): 14.5 mg/kg
- Mean duration of sleep (mice [1]; in the case of dose HD50): 1.7 min
- Mean duration of sleep (mice [1]; in the case of dose Hmin): 5.0 min
- ED50 (rats): 8 mg/kg
- Mean duration of sleep (rats): 1.9 min
- minimal effective dose (rabbits): 25 mg/kg
- Mean duration of sleep (rabbits): 14 min
- LD50 [2]: 62 mg/kg
- LD50 [3]: 39.4 mg/kg
- mortality ([6]; 50 mg/kg): 80%
- LD50 [6]: < 50 mg/kg
